Here are results for five compounds from patent publication US20240390317A1, “COMBINATION TREATMENT AND/OR PREVENTION OF CARDIAC DISEASES IN NON-HUMAN MAMMALS COMPRISING ONE OR MORE SGLT-2 INHIBITORS AND PIMOBENDAN AND/OR TELMISARTAN” (BOEHRINGER INGELHEIM VETMEDICA GMBH, priority 2023, published 2024).

Assay [1] has as its system Dogs With Mitral Valve Disease (MVD). Briefly: Example 16 exploratory clinical field trial, velagliflozin plus pimobendan vs pimobendan. In kind it is in vivo, dog. How it is done: The described study is a prospective, baseline controlled, unblinded, open-label, multi-site exploratory clinical field trial. Client owned dogs diagnosed with MVD are randomized at different sites to either a pimobendan or a velagliflozin plus pimobendan treatment group. Eight dogs could be successfully enrolled. […] The clinical field trial is further ongoing.
The dogs that enter the study are evaluated regularly including a full physical examination including bodyweight, blood pressure, auscultation of the cardiovascular system, thoracic radiographs to assess heart size, pulmonary edema and congestion, standard echocardiography, ECG, blood and urine evaluation.
The cardiovascular history is evaluated assessing the date of MVD diagnosis and whether there is a history of heart failure. An owner questionnaire is compiled on a regular basis during the study to provide an overview on the overall condition of the dogs, the respiratory rate per minute at resting and the exercise tolerance during the last seven days of treatment.
The dogs included must be diagnosed with MVD stage B2 or stage C via physical examination and echocardiography. Variables of interest are all clinical parameters evaluated in addition to laboratory values, blood pressure, number of events (death or hospitalization for heart failure or euthanasia), the time-to-event duration, the adjustment of diuretic treatment, owner questionnaire data, x-ray results and overall disease progression (requiring additional, prohibited cardiac treatment).
During the ongoing field trial three dogs are receiving a combined velagliflozin (0.5 mg/kg bodyweight orally once daily) and pimobendan treatment (daily dose of 0.5 mg/kg bodyweight orally divided into two portions that are not necessarily equal).
During the ongoing field trial four dogs are receiving a pimobendan only treatment (daily dose of 0.5 mg/kg bodyweight orally divided into two portions that are not necessarily equal).

The subject of assay [2] is dogs with a moderate degree of tachypacing-induced heart-failure [dilated cardiomyopathy (DCM) model]. Briefly: Example 17 laboratory study (DCM model). In kind it is in vivo, beagle dogs. Conditions: for creatinine levels / enhancements of diastolic function and performance (i.e., IVRT, E, E′-ave) / enhancements of values indicative of systolic function and performance (i.e., EF, FAS, Simpson EF, s′ wave, LVOT VTI, SV, CO, or SAX Strain) / urine glucose: tachypacing DCM model, three-month dosing. The protocol:
A laboratory study is conducted to evaluate the effects of the SGLT2 inhibitor Velagliflozin with Pimobendan compared to Pimobendan alone and Velagliflozin alone in dogs with a moderate degree of tachypacing-induced heart-failure [dilated cardiomyopathy (DCM) model]. The study involves 12 beagle dogs, divided into three treatment groups, each containing four dogs, in two dosing phases (totaling eight dogs per group). The treatment groups are Pimobendan, Velagliflozin, and a combination of both (Pimobendan+Velagliflozin).
The dogs are implanted with a pacing generator in the right ventricle (Abbott-Johnson K et al., 2021) and subjected to two rounds of dosing for three months each. The heart failure is induced to a moderate degree (EF=˜40-45%) before the start of each dosing round, with the pacing rate maintained throughout the three-month dosing period. After each round, a washout period of about 21-28 days is given before the next round of dosing begins.
Various data are collected throughout the study, including 6-minute walk test, blood and urine analysis, and echocardiography data. The dogs undergo an anesthetized recovery procedure at the end of each three-month round, where systemic hemodynamics are recorded. A single dose of dobutamine is also administered to measure functional reserve at the end of each 3-month period.

The test system of assay [3] is mitral regurgitation-induced myocardial dysfunction. Particulars: cited from earlier work.
Assay [4] relates to canine atrial fibrillation model. Conditions: cited from earlier work.
Assay [5] has as its system adults with heart failure and reduced or preserved ejection fraction, with and without diabetes. Conditions: cited from earlier work.
Assay [6] has as its system non-diabetic heart failure. Conditions: by enhancing myocardial energetics; cited from earlier work.

Take `COc1ccc(-c2nc3cc(C4=NNC(=O)CC4C)ccc3[nH]2)cc1` (stereo not shown) [pimobendan, 4,5-dihydro-6-[2-(4-methoxyphenyl)-1H-benzimidazol-5-yl]-5-methyl-3(2H)-pyridazinone]: in assay [1] (pimobendan only (0.5 mg/kg/day), first dog, Day 88, before: seven, progresses from moderate to severe disease state), the MINE score entry is reported as “eight”. Also, the “other parameters measured (i.e. heart murmur)” value in assay [1] (pimobendan only, first dog) is on record as “mainly unchanged”. Further, the “Echo Parameter LA/Ao” value in assay [1] (pimobendan only, fourth dog, Day 42, Screening 1.88) amounted to 1.61. For the same compound, the MINE score entry in assay [1] (pimobendan only, fourth dog, Day 42, Screening: eight) is on record as “six”. Also, the “overall condition (owner score)” value in assay [1] (pimobendan only, fourth dog, Day 42, Screening: neutral) was “good”. The “exercise tolerance in the last 7 days (owner score)” value in assay [1] (pimobendan only, fourth dog, Day 42, Screening: very poor) is recorded as “good”. Besides, the “overall condition and exercise tolerance in the last 7 days (owner report)” value in assay [1] (pimobendan only, second dog) is “improvement”. Besides, in assay [1] (pimobendan only, second dog, Day 55, Screening 2.14), the “Echo-Parameter LA/Ao” value was found to be 1.96. For the same compound, the “MINE score (echocardiographic parameters)” value in assay [1] (pimobendan only, second dog, Day 55, stable, severely diseased) is “eight”. The “Echo-Parameter LA/Ao” value in assay [1] (pimobendan only, third dog, Day 48, Screening 1.60) was determined as 1.53. Besides, the “overall condition of the owner score” value in assay [1] (pimobendan only, third dog, Day 48, Screening: neutral) is given as “good”. The “functional support with enhanced systolic and diastolic performance” value in assay [2] (for three months) is “clear and robust functional support”. Further, in assay [2], the creatinine levels entry is “does not affect”; the “enhancements of diastolic function and performance (i.e., IVRT, E, E′-ave)” value is given as ~20%; the “enhancements of values indicative of systolic function and performance (i.e., EF, FAS, Simpson EF, s′ wave, LVOT VTI, SV, CO, or SAX Strain)” value was ~30%; the urine glucose entry is “does not affect”.

Turning to `CCOc1ccc(Cc2cc([C@@H]3O[C@H](CO)[C@@H](O)[C@H](O)[C@H]3O)ccc2Cl)cc1` [dapagliflozin, Dapagliflozin], in assay [3], the arrhythmogenesis entry was “mitigates” and the cardiac hemodynamics result is reported as “improves”.

As to `Cc1ccc([C@@H]2O[C@H](CO)[C@@H](O)[C@H](O)[C@H]2O)cc1Cc1ccc(-c2ccc(F)cc2)s1` [canagliflozin, Canagliflozin], the atrial remodeling result in assay [4] is reported as “suppresses”.

Regarding `N#Cc1ccc([C@@H]2O[C@H](CO)[C@@H](O)[C@H](O)[C@H]2O)cc1Cc1ccc(C2CC2)cc1` [velagliflozin, Velagliflozin], in assay [2], the creatinine levels result is “lower”; the “enhancements of diastolic function and performance (i.e., IVRT, E, E′-ave)” value is given as “little-to-no support”; the “enhancements of values indicative of systolic function and performance (i.e., EF, FAS, Simpson EF, s′ wave, LVOT VTI, SV, CO, or SAX Strain)” value is given as “little-to-no support”; the urine glucose entry is “elevated”.

On to `OC[C@H]1O[C@@H](c2ccc(Cl)c(Cc3ccc(O[C@H]4CCOC4)cc3)c2)[C@H](O)[C@@H](O)[C@@H]1O` [empagliflozin, Empagliflozin], for which the “risk for the composite endpoint of cardiovascular death or hospitalization due to heart failure” value in assay [5] is “reduced”. Besides, the “adverse left ventricular remodeling” value in assay [6] was “ameliorates”.
